Patent US20200397751A1, “Modulation of AMPA/kainate Receptors for the Treatment of Hypoglycemia” (priority 2017, published 2020)

Test system: isolated rodent islets
Assay: Glucagon secretion by isolated rodent islets in culture at varying glucose concentrations, 1 hr PAM treatment, glucagon by ELISA
Format: cell-based
Procedure: In an in vitro approach, isolated rodent islets maintained in culture in 96-well plates are treated for 1 hr with PAMs. Simultaneous with addition of PAMs, islets are exposed by media exchange to glucose concentrations ranging from hypoglycemic to hyperglycemic: e.g., 2 mM, 6 mM, 12 mM, 18 mM, etc. At the end of a 1 hour PAM treatment in varying glucose concentrations, glucagon levels in each treatment condition are then measured by ELISA.

[1] = euglycemic and hyperglycemic conditions

Row | Structure (SMILES) | amount of glucagon released into a culture media by isolated islets [1] | amount of glucagon released into a culture media by isolated islets (hypoglycemic conditions)
1 | O=C1c2cccnc2OC[C@@H]2CCCN12 [ORG26576] | not | dose-dependently upregulate
2 | CC(CNS(=O)(=O)C(C)C)c1ccc(-c2ccc(C#N)cc2)cc1 (stereo not drawn) [LY404187] | not | dose-dependently upregulate
3 | COc1ccc(C(=O)N2CCCC2=O)cc1 [aniracetam] | not | dose-dependently upregulate
